Assay results: patent publication US6960687B2, “Derivatives and pharmaceutical compositions of n-hydroxyalkyl tetramethylcyclopropane-carboxamide, having anti-epiletic, neurological, and CNS activity, and method for their preparation” (priority 2002, dated 2005)

What was measured:
[1] = test system: mice; test: maximal electroshock seizure test (MES); format: in vivo
Method: The ED50 (mice ip) in the MES model is between 150 and 300 mg/kg in mice (Table 1). This value is slightly lower than that of VPA in mice. The results are indicative of the compound 1 having an efficacy against generalized seizures and complex partial seizures that evolve into generalized motor seizures.
(§1) Compound V of the above diagram (2-hydroxyethyl-tetramethylcyclopropane-carboxamide) was screened for its ability to protect against induced convulsions in MES and scMet test. […] At the sc Met (subcutaneous metrazole) test, 3 out of 4 mice were protected following ip administration of 50 mg/kg.

[2] = test system: mice; test: subcutaneous metrazole test (sc Met); format: in vivo
Excerpt: This value is slightly lower (more efficacious) than that found for VPA in mice. The results are indicative of the compound 1 having an efficacy against absence seizures and ability to raise seizure threshold.
as §1

[3] = test system: mice; test: neurotoxicity, rotorod ataxia test; format: in vivo
Method: (§2) Neurotoxicity of the claimed agents was assessed in mice (ip. administration) in the rotorod ataxia test. Compound 1 was neurotoxic in some of the mice tested at doses of above 146 mg/kg ip. The PI for compound 1 at the highest stimulus intensity (44 mA) in the 6 Hz test in mice was 1.1 compared to 0.91 for VPA.

[4] = test system: mice; test: 6 Hz psychomotor seizure model; conditions: for PI (6 Hz 44 mA): protective index at 44 mA stimulus; for ED50: Mus musculus, 0.25 h
[5] = test system: mouse; conditions: literature statement; cited from earlier work
[6] = test system: animal models of epilepsy; conditions: literature statement; cited from earlier work
[7] = neurotoxicity, rotorod ataxia test; format: in vivo, mice; conditions: mouse, in vivo, ip
Method: as §2

[8] = test system: mice; conditions: cited from earlier work
[9] = ip, 15 min following administration

CC1(C)C(C(=O)NCO)C1(C)C [Compound 1, N-hydroxymethyl-tetramethylcyclopropane-carboxamide]
MES ED50 [1, 9]: 150 to 300 mg/kg
sc Met ED50 [2, 9]: 120 mg/kg
Neurotoxicity TD50 ([3]; mice, ip, 15 min following administration): 146 mg/kg
doses neurotoxic in some of the mice tested ([3]; mice, ip, rotorod ataxia test): above 146 mg/kg
times more active compared to VPA, 6 Hz 32 mA test ([4]; mice, 32 mA): 1.38 times
times more active compared to VPA, 6 Hz 44 mA test ([4]; mice, 44 mA): 2.31 times
6 Hz 22 mA ED50 ([4]; mice, ip, 15 min, stimulation intensity 22 mA): 75 mg/kg
6 Hz 32 mA ED50 ([4]; mice, ip, 15 min, stimulation intensity 32 mA): 91 mg/kg
6 Hz 44 mA ED50 ([4]; mice, ip, 15 min, stimulation intensity 44 mA): 134 mg/kg
PI (6 Hz 44 mA) ([4]; mice, ip): 1.1

CC1(C)C(C(=O)NCCO)C1(C)C [Compound V, 2-hydroxyethyl-tetramethylcyclopropane-carboxamide]
mice protected at the MES test ([1]; dose of 30 mg/kg ip): 1 out of 4
mice protected at the sc Met test ([2]; ip administration of 50 mg/kg): 3 out of 4
behavioral impairment (neurotoxicity) ([3]; dose of 50 mg/kg ip): did not show any behavioral impairment

CNC(=O)C1C(C)(C)C1(C)C [N-Methyl-tetramethylcyclopropane carboxamide]
teratogenicity [5]: not teratogenic
potency relative to VPA in animal models of epilepsy [6]: approximately 10 times

CC1(C)C(C(N)=O)C1(C)C [Tetramethylcyclopropane carboxamide, Tetramethyl-cyclopropane-carboxamide]
teratogenicity [5]: not teratogenic

CCCC(CCC)C(=O)O [VPA, valproic acid, reference compound]
ED50 ([1]; Mus musculus, 0.25 h, ip, 15 min following administration): 271 mg/kg
TD50 at 15 min [7]: 283 mg/kg
ED50 ([4]; ip, read-out: 6 Hz 22 mA ED50): 42 mg/kg
ED50 ([4]; ip, read-out: 6 Hz 44 mA ED50): 310 mg/kg
PI (6 Hz 44 mA) ([4]; mice, ip): 0.91

CCC(C)C(CC)C(N)=O (stereo not drawn) [Valnoctamide (VCD), Valnoctamide]
teratogenicity [5]: non-teratogenic

CC[C@@H](C(N)=O)N1CCCC1=O [levetiracetam]
ED50 in 6 Hz model at 44 mA stimulus (existing antiepileptic drugs) [8]: 189 mg/kg

CCCC(C(N)=O)C(C)C (stereo not drawn) [propyl-isoproylacetamide (PID), propyl-isoproylacetamide]
teratogenicity [5]: non-teratogenic
